Read-outs that look alike come from different tables or passages of the source. Ends that are not written are not given here.
Columns and labels:
E. coli ATCC 8739 [1] = format: cell-based, Escherichia coli; conditions: for MBC E. coli ATCC 8739: plated on MHA, ≥3 log reduction vs growth control
Outline: (§1)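 Peptides were serially diluted (64–0.25 μM, repeat 32–0.016 μM) against 5 × 10^3 CFU/mL inocula in MHB (bacteria) or RPMI (fungi) at 37°C for 16 h (bacteria), 24 h (C. albicans) or 48 h (A. fumigatus). MIC was read visually with resazurin readout; MBC was defined as ≥3 log reduction on MHA.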

P. aeruginosa ATCC 9027 [2] = assay: Time-to-kill analysis; format: cell-based, Pseudomonas aeruginosa
Experimental: To investigate the bactericidal kinetics of the selected AMPs, a time-to-kill analysis was performed as described previously by Mascio et al. ([78]). Briefly, peptide serial dilutions were prepared in 96-well plates (10 μL) and mixed with 190 μL of a P. aeruginosa ATCC 9027 culture of an optical density measured at a wavelength of 600 nm (OD600) of 0.1. Plates were incubated at 37°C and at selected time points (0 h, 0.5 h, 1 h, 2 h, 4 h, and 5 h), aliquots were removed and serially diluted in PBS. The dilutions were plated on TSA and incubated overnight at 37°C. Afterwards, bacterial viability was assessed by performing a standard plate count. Bactericidal activity was defined as a ≥3-log reduction compared with the untreated bacterial control. To avoid carry-over effect of the peptides, the undiluted sample was not plated, leading to a quantification limit of 10^3 CFU/mL ([78]). Bacterial counts were calculated for each AMP concentration at each time point using the average plate count. Afterwards, log10 reductions of the bacterial counts were calculated using the following formula: log10 reduction = log10 (viable microorganisms without AMP treatment/viable microorganisms with AMP treatment). Next, the average log10 reductions and the standard deviations of five independent experiments were calculated and visualized using GraphPad Prism 8.

S. aureus ATCC 6538 = format: cell-based, Staphylococcus aureus; conditions: determined visually, 16 h
Outline: as §1

P. aeruginosa ATCC 9027 [3] = format: cell-based, Pseudomonas aeruginosa; conditions: for MBC P. aeruginosa ATCC 9027: plated on MHA, ≥3 log reduction vs growth control
K. pneumoniae ATCC 13883 = conditions: ATCC 13883, 16 h
[4] = test system: P. aeruginosa ATCC 15692 (PAO1); conditions: ATCC 15692, 16 h
E. coli ATCC 8739 [5] = conditions: ATCC 8739, 16 h
P. aeruginosa ATCC 15442 = conditions: ATCC 15442, 16 h

For “RWYKKIFKPVEKAVQRVRDGTLQALGVAQQAANVYATAQGAQQQRHA-NH2 [Hill-Cec10]”, the “MIC E. coli ATCC 8739” value (E. coli ATCC 8739 [1]; ATCC 8739, 16 h) was 0.50 µM, the “MIC E. coli ATCC 8739” value (E. coli ATCC 8739 [1]; repeat 1, 64-0.25 μM, determined visually, 16 h) was 0.25 µM and the “MBC E. coli ATCC 8739” value (E. coli ATCC 8739 [1]; repeat 1) was 0.25 µM. For the same substance, the “MBC E. coli ATCC 8739” value (E. coli ATCC 8739 [1]; repeat 2) was 32.00 µM, the “log10 reduction of P. aeruginosa” value (P. aeruginosa ATCC 9027 [2]; 8 μM (8 × MIC Hill-Cec1, 4 × MIC Hill-Cec10), after 5 h, mean ± SD of five experiments) was 2.44 ± 0.46 log10 and the “log10 reduction of P. aeruginosa” value (P. aeruginosa ATCC 9027 [2]; 16 μM (8 × MIC), after 5 h, mean ± SD of five experiments) was 4.60 ± 0.94 log10. The “log10 reduction of P. aeruginosa” value (P. aeruginosa ATCC 9027 [2]; 16 μM (8 × MIC), always (all experiments)) was ≥ 3 log10, the “concentration needed to maintain bactericidal activity” value (P. aeruginosa ATCC 9027 [2]; time-to-kill, ≥3-log10 reduction vs growth control) was ≥ 16 µM and the “MIC S. aureus ATCC 6538” value (S. aureus ATCC 6538; repeat 1, 64-0.25 μM) was > 64.00 µM. The “MIC S. aureus ATCC 6538” value (S. aureus ATCC 6538; repeat 2, 32-0.016 μM) was > 32.00 µM, the “MBC P. aeruginosa ATCC 9027” value (P. aeruginosa ATCC 9027 [3]; repeat 1) was 16.00 µM and the “MIC P. aeruginosa ATCC 9027” value (P. aeruginosa ATCC 9027 [3]; repeat 2, 32-0.016 μM, determined visually, 16 h) was 2.00 µM. The “MBC P. aeruginosa ATCC 9027” value (P. aeruginosa ATCC 9027 [3]; repeat 2) was 2.00 µM, the “MIC K. pneumoniae” value (K. pneumoniae ATCC 13883) was 0.5 to 1 µM and the “MBC P. aeruginosa ATCC 15692 (PAO1)” value [4] was 16 µM. For the same substance, the “MIC E. coli ATCC 8739” value (E. coli ATCC 8739 [5]) was 1 µM and the “MIC P. aeruginosa ATCC 15442” value (P. aeruginosa ATCC 15442) was 4 µM.

Source: publication PMC8729770, “In Vitro Evaluation of Antimicrobial Peptides from the Black Soldier Fly (Hermetia Illucens) against a Selection of Human Pathogens” (Microbiology Spectrum, 2022)
